Results on 20 compounds are retold here after ChEMBL document CHEMBL1156135 (Bioorg Med Chem Lett, 2009).

Test system in one series: not listed separately
The series is described as follows: Therapeutic index, ratio of IC50 for human Caco-2 cells expressing wild type b-Raf to IC50 for human A375 cells expressing b-Raf V600E mutant. Type of series: cell-based. To be noted: read-out: Ratio IC50.
Consider `CCOC(=O)N1C2CCC1CC(c1ccnc3c(-c4cccc5[nH]ncc45)c(-c4ccncc4)nn13)C2` (stereo unspecified), for which the selectivity ratio was 2.1.
Turning to `CCOC(=O)N1C2CCC1CC(c1ccnc3c(-c4ccc(Cl)c5[nH]ncc45)c(-c4ccncc4)nn13)C2` (stereo unspecified), the selectivity ratio was 9.4.
On the same count and under the same terms, for `CCOC(=O)N1C2CCC1CC(c1ccnc3c(-c4ccc(F)c5[nH]ncc45)c(-c4ccncc4)nn13)C2` (stereo unspecified) the value was 5.8.

For a further series, the system named is A-375. The series is described as follows: Antiproliferative activity against human A375 cells expressing b-Raf V600E mutant. Type of series: functional, cell-based.
Conditions: not given
In the case of `CN(C)C(=O)N1C2CCC1CC(c1ccnc3c(-c4cccc5[nH]ncc45)c(-c4ccncc4)nn13)C2` (stereo unspecified), it took 3000 nM to reach half-maximal inhibition (IC50).
On the same count and under the same terms, for `CCN1C2CCC1CC(c1ccnc3c(-c4ccc(C(F)(F)F)c5[nH]ncc45)c(-c4ccncc4)nn13)C2` (stereo unspecified) the value was 1700 nM; for `CCOC(=O)N1C2CCC1CC(c1ccnc3c(-c4cccc5[nH]ncc45)c(-c4ccncc4)nn13)C2` (stereo unspecified), 380 nM; for `CCOC(=O)N1C2CCC1CC(c1ccnc3c(-c4cccc(OC)c4)c(-c4ccncc4)nn13)C2` (stereo unspecified), 9000 nM.
Same read-out and setting: for `CCOC(=O)N1C2CCC1CC(c1ccnc3c(-c4ccc5cc[nH]c5c4)c(-c4ccncc4)nn13)C2` (stereo unspecified) the value was 7500 nM; for `CCN1C2CCC1CC(c1ccnc3c(-c4ccc(Cl)c5[nH]ncc45)c(-c4ccncc4)nn13)C2` (stereo unspecified), 1090 nM; for `CS(=O)(=O)C1C2CCC1CC(c1ccnc3c(-c4ccc(Cl)c(O)c4)c(-c4ccncc4)nn13)C2` (stereo unspecified), 270 nM.
In the case of `O=C(O)[C@H]1CCCN1C(=O)N1C2CCC1CC(c1ccnc3c(-c4cccc5[nH]ncc45)c(-c4ccncc4)nn13)C2` (stereo partly specified), the concentration for half-maximal inhibition (IC50) (in general, the point on the concentration scale where inhibition reaches its midpoint) worked out at 5940 nM.
Same read-out and setting: for `CCN1C2CCC1CC(c1ccnc3c(-c4ccc(C#N)c(O)c4)c(-c4ccncc4)nn13)C2` (stereo unspecified) the value was greater than 10000 nM.
`CC(C)N1C2CCC1CC(c1ccnc3c(-c4cccc5[nH]ncc45)c(-c4ccncc4)nn13)C2` (stereo unspecified) registered an IC50 of 1960 nM.
Still for that read-out and setting: with `CCN1C2CCC1CC(c1ccnc3c(-c4ccc(F)c(O)c4)c(-c4ccncc4)nn13)C2` (stereo unspecified) the figure was 760 nM; with `CCOC(=O)N1C2CCC1CC(c1c(C)cnc3c(-c4cccc5[nH]ncc45)c(-c4ccncc4)nn13)C2` (stereo unspecified), 1220 nM; with `Oc1cc(-c2c(-c3ccncc3)nn3c(C4CC5CCC(C4)N5)ccnc23)ccc1Cl` (stereo unspecified), 440 nM.
On the same count and under the same terms, for `COC(=O)C1CC2c3c(cnc4c(-c5ccc(Cl)c(O)c5)c(-c5ccncc5)nn34)CC1N2C` (stereo unspecified) the value was 2300 nM.
On the same count and under the same terms, with `CCOC(=O)N1C2CCC1CC(c1ccnc3c(-c4ccc(C(F)(F)F)c5[nH]ncc45)c(-c4ccncc4)nn13)C2` (stereo unspecified) the figure was 2500 nM; with `Oc1cccc(-c2c(-c3ccncc3)nn3c(C4CC5CCC(C4)N5)ccnc23)c1` (stereo unspecified), 2250 nM; with `CCOC(=O)N1C2CCC1CC(c1ccnc3c(-c4ccc(Cl)c5[nH]ncc45)c(-c4ccncc4)nn13)C2` (stereo unspecified), 580 nM.
`CCNC(=O)N1C2CCC1CC(c1ccnc3c(-c4cccc5[nH]ncc45)c(-c4ccncc4)nn13)C2` (stereo unspecified) showed an IC50 of 2810 nM.
Still for that read-out and setting: with `CCN1C2CCC1CC(c1ccnc3c(-c4ccc(Cl)c(OC)c4)c(-c4ccncc4)nn13)C2` (stereo unspecified) the figure was 2200 nM; with `CCOC(=O)N1C2CCC1CC(c1ccnc3c(-c4ccc(F)c5[nH]ncc45)c(-c4ccncc4)nn13)C2` (stereo unspecified), 620 nM.

Test system in a further series: not listed separately
The series is described as follows: Therapeutic index, ratio of IC50 for human Caco-2 cells expressing wild type b-Raf to IC50 for human WM266.4 cells expressing b-Raf V600E mutant. Type of series: cell-based. To be noted: read-out: Ratio IC50.
Turning to `CCOC(=O)N1C2CCC1CC(c1ccnc3c(-c4cccc5[nH]ncc45)c(-c4ccncc4)nn13)C2` (stereo unspecified), the selectivity ratio stood at 2.7.
On the same count and under the same terms, for `CCOC(=O)N1C2CCC1CC(c1ccnc3c(-c4ccc(Cl)c5[nH]ncc45)c(-c4ccncc4)nn13)C2` (stereo unspecified) the value was 19.3.
Same read-out and setting: with `CCOC(=O)N1C2CCC1CC(c1ccnc3c(-c4ccc(F)c5[nH]ncc45)c(-c4ccncc4)nn13)C2` (stereo unspecified) the figure was 12.

The next series deals with Caco-2. The series is described as follows: Antiproliferative activity against human Caco-2 cells expressing wild type b-Raf. It is filed as functional, cell-based.
Conditions: not given
Regarding `CCOC(=O)N1C2CCC1CC(c1ccnc3c(-c4cccc5[nH]ncc45)c(-c4ccncc4)nn13)C2` (stereo unspecified), it took 800 nM to reach half-maximal inhibition (IC50).

Test system in another series: not listed separately
The series is described as follows: Selectivity for B-raf over p38alpha.
Conditions: not given
In the case of `CCOC(=O)N1C2CCC1CC(c1ccnc3c(-c4ccc(F)c5[nH]ncc45)c(-c4ccncc4)nn13)C2` (stereo unspecified), the Ratio came out at 19.

Test system in a further series: not listed separately
The series is described as follows: Antiproliferative activity against human WM266.4 cells expressing b-Raf V600E mutant. Type of series: functional, cell-based. To be noted: WM 266-4.
The compound `CN(C)C(=O)N1C2CCC1CC(c1ccnc3c(-c4cccc5[nH]ncc45)c(-c4ccncc4)nn13)C2` (stereo unspecified) came in with an IC50 of 2140 nM.
Regarding `CCN1C2CCC1CC(c1ccnc3c(-c4ccc(C(F)(F)F)c5[nH]ncc45)c(-c4ccncc4)nn13)C2` (stereo unspecified), the concentration for half-maximal inhibition (IC50) amounted to 2900 nM.
Same read-out and setting: for `CCOC(=O)N1C2CCC1CC(c1ccnc3c(-c4cccc5[nH]ncc45)c(-c4ccncc4)nn13)C2` (stereo unspecified) the value was 300 nM; for `CCOC(=O)N1C2CCC1CC(c1ccnc3c(-c4cccc(OC)c4)c(-c4ccncc4)nn13)C2` (stereo unspecified), 8000 nM.
On the same count and under the same terms, with `CCOC(=O)N1C2CCC1CC(c1ccnc3c(-c4ccc5cc[nH]c5c4)c(-c4ccncc4)nn13)C2` (stereo unspecified) the figure was greater than 10000 nM; with `CCN1C2CCC1CC(c1ccnc3c(-c4ccc(Cl)c5[nH]ncc45)c(-c4ccncc4)nn13)C2` (stereo unspecified), 860 nM.
The compound `CS(=O)(=O)C1C2CCC1CC(c1ccnc3c(-c4ccc(Cl)c(O)c4)c(-c4ccncc4)nn13)C2` (stereo unspecified) had a half-inhibitory concentration (IC50) of 90 nM.
For the compound `O=C(O)[C@H]1CCCN1C(=O)N1C2CCC1CC(c1ccnc3c(-c4cccc5[nH]ncc45)c(-c4ccncc4)nn13)C2` (stereo partly specified), half-maximal inhibition (IC50) was put at 1860 nM.
In turn, `CCN1C2CCC1CC(c1ccnc3c(-c4ccc(C#N)c(O)c4)c(-c4ccncc4)nn13)C2` (stereo unspecified) displayed an IC50 greater than 10000 nM.
The same measure, in the same setting: with `CC(C)N1C2CCC1CC(c1ccnc3c(-c4cccc5[nH]ncc45)c(-c4ccncc4)nn13)C2` (stereo unspecified) the figure was 1750 nM.
The same measure, in the same setting: with `CCN1C2CCC1CC(c1ccnc3c(-c4ccc(F)c(O)c4)c(-c4ccncc4)nn13)C2` (stereo unspecified) the figure was 450 nM.
Same read-out and setting: with `CCOC(=O)N1C2CCC1CC(c1c(C)cnc3c(-c4cccc5[nH]ncc45)c(-c4ccncc4)nn13)C2` (stereo unspecified) the figure was 1870 nM; with `Oc1cc(-c2c(-c3ccncc3)nn3c(C4CC5CCC(C4)N5)ccnc23)ccc1Cl` (stereo unspecified), 90 nM; with `COC(=O)C1CC2c3c(cnc4c(-c5ccc(Cl)c(O)c5)c(-c5ccncc5)nn34)CC1N2C` (stereo unspecified), 1100 nM.
In turn, `CCOC(=O)N1C2CCC1CC(c1ccnc3c(-c4ccc(C(F)(F)F)c5[nH]ncc45)c(-c4ccncc4)nn13)C2` (stereo unspecified) showed an IC50 of 2300 nM.
In turn, `Oc1cccc(-c2c(-c3ccncc3)nn3c(C4CC5CCC(C4)N5)ccnc23)c1` (stereo unspecified) yielded an IC50 of 220 nM.
Same read-out and setting: for `CCOC(=O)N1C2CCC1CC(c1ccnc3c(-c4ccc(Cl)c5[nH]ncc45)c(-c4ccncc4)nn13)C2` (stereo unspecified) the value was 280 nM; for `CCNC(=O)N1C2CCC1CC(c1ccnc3c(-c4cccc5[nH]ncc45)c(-c4ccncc4)nn13)C2` (stereo unspecified), 1520 nM.
Turning to `CCN1C2CCC1CC(c1ccnc3c(-c4ccc(Cl)c(OC)c4)c(-c4ccncc4)nn13)C2` (stereo unspecified), the IC50 was 5600 nM.
`CCOC(=O)N1C2CCC1CC(c1ccnc3c(-c4ccc(F)c5[nH]ncc45)c(-c4ccncc4)nn13)C2` (stereo unspecified) had a concentration for half-maximal inhibition (IC50) of 300 nM.

The target of a further series is Serine/threonine-protein kinase B-raf (Homo sapiens, UniProt P15056). The series is described as follows: Inhibition of B-Raf.
Chain of Serine/threonine-protein kinase B-raf (P15056 whole entry): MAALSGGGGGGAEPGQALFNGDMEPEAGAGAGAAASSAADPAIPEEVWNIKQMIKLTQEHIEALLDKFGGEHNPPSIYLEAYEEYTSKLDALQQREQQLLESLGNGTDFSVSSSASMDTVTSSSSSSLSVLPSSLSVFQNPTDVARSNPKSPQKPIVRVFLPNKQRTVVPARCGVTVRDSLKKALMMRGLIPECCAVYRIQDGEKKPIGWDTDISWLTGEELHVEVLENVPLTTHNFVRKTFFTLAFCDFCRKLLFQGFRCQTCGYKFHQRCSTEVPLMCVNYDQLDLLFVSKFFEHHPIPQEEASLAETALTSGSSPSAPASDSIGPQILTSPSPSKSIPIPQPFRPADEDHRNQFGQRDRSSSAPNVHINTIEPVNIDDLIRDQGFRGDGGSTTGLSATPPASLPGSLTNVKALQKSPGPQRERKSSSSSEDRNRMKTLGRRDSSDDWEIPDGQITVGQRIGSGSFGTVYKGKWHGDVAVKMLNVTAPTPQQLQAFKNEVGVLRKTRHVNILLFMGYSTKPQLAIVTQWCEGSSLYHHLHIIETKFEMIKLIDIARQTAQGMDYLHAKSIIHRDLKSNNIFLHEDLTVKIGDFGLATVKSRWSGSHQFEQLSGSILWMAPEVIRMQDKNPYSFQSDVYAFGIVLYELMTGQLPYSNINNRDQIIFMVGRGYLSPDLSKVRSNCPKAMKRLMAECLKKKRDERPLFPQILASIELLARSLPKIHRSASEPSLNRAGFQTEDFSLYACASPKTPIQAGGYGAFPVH
Conditions: not given
`CCN1C2CCC1CC(c1ccnc3c(-c4ccc(C(F)(F)F)c5[nH]ncc45)c(-c4ccncc4)nn13)C2` (stereo unspecified): half-maximal inhibition (IC50) was put at 45 nM.
Same read-out and setting: for `CCN1C2CCC1CC(c1ccnc3c(-c4ccc(Cl)c5[nH]ncc45)c(-c4ccncc4)nn13)C2` (stereo unspecified) the value was 4.4 nM; for `CS(=O)(=O)C1C2CCC1CC(c1ccnc3c(-c4ccc(Cl)c(O)c4)c(-c4ccncc4)nn13)C2` (stereo unspecified), less than 2 nM.
On the same count and under the same terms, with `O=C(O)[C@H]1CCCN1C(=O)N1C2CCC1CC(c1ccnc3c(-c4cccc5[nH]ncc45)c(-c4ccncc4)nn13)C2` (stereo partly specified) the figure was 2.1 nM; with `CCOC(=O)N1C2CCC1CC(c1c(C)cnc3c(-c4cccc5[nH]ncc45)c(-c4ccncc4)nn13)C2` (stereo unspecified), 8.4 nM; with `COC(=O)C1CC2c3c(cnc4c(-c5ccc(Cl)c(O)c5)c(-c5ccncc5)nn34)CC1N2C` (stereo unspecified), 1.6 nM.
On the same count and under the same terms, with `CCOC(=O)N1C2CCC1CC(c1ccnc3c(-c4ccc(C(F)(F)F)c5[nH]ncc45)c(-c4ccncc4)nn13)C2` (stereo unspecified) the figure was 4.4 nM; with `CCOC(=O)N1C2CCC1CC(c1ccnc3c(-c4ccc(Cl)c5[nH]ncc45)c(-c4ccncc4)nn13)C2` (stereo unspecified), 0.4 nM.
